Test results as given in patent publication EP0364941A1, “Branched-chain alkyl esters of 2-(4-(2-piperidino ethoxy)benzoyl)benzoic acid, processes for their preparation and their use as spasmolytic agents” (HOECHST AKTIENGESELLSCHAFT, priority 1988, dated 1990).

Tests used:
Format in all cases: in vivo
small intestine [1] = assay: Antispasmodic activity in anaesthetized dog (carbachol or acetylcholine induced intestinal contractions); settings: anaesthetised dog
Experimental: Male mongrel dogs of weight range 10 to 15 kg were anaesthetised with pentobarbitone sodium (35 mg/ kg,i.v.). Slow i.v. infusion of pentobarbitone (5 mg/kg/hour) was given for maintenance anaesthesia. The endotracheal tube was inserted to facilitate spontaneous breathing. Both femoral artery and vein were cannulated respectively for recording blood pressure and administering drugs. After laparotomy, a small portion of small intestine distal to duodenum was isolated and saline filled balloon inserted and the opening was sutured. A fine polyethylene cannula was then inserted into the mesenteric artery which supplies to the area of intestine containing balloon for injection of carbachol or acetylcholine. A Statham pressure transducer was then attached to balloon cannula for recording both circular and longitudinal muscle contractions. All the parameters were recorded on 4 channel Nihon-Kohden recorder. The intestinal contractions were recorded after administering a standard dose of carbachol or acetylcholine (0.5 to 3 µg). Test compounds I and II were given at different doses 3,10 and 20 mg/kg intra-duodenally and spasmolytic activity was assessed at various time intervals. Anti-spasmodic activity was assessed by calculating percent reduction in agonist induced contractions and also noting onset and duration of activity. The test compounds were dissolved in distilled water (1% soln.). Table 3 Test compounds I and II were given at different doses (10, 30, 100, 300 and 1000 µg/kg) intravenously and spasmolytic activity was assessed at different time intervals. Anti-spasmodic activity was assessed by calculating percent reduction in agonist induced contractions. The ID₅₀ value was calculated from the dose response curve.

small intestine [2] = assay: Gastrointestinal propulsion (charcoal transport) in mice
Experimental: Ref.: J.M.A. Zwagemakers and V. Claassen, Arzneim-Forsch/-Drug Res. 30 (II) Nr.9, p.1517 (1980).
The test compounds I and II were given orally by gavage in a range of 10 to 100 mg/kg doses 30 min before charcoal suspension (0.2 ml/animal, 10% charcoal in 5% gum acacia) in 18 hrs fasted mice (male or female, weight range 18 to 25 g). 30 min after administration of charcoal animals were killed and the extent of charcoal propulsion in the small intestine was measured. The inhibitory activity of test compound on charcoal transport was assessed as percent inhibition compared to length of intestine. For control group 10 ml/kg of saline was given.

small intestine [3] = assay: Motility of the small intestine in the conscious dog; settings: for Area under the contraction curve, Postdrug 10 min: 10 min postdrug; for Area under the contraction curve, Postdrug 10 min / Area under the contraction curve, Postdrug 20 min / Area under the contraction curve, Postdrug 30 min / Area under the contraction curve, Postdrug 40 min / Area under the contraction curve, Postdrug 50 min / Area under the contraction curve, Postdrug 60 min / Area under the contraction curve, Predrug -20 - 0: phase I and II; for Area under the contraction curve, Postdrug 20 min: 20 min postdrug; for Area under the contraction curve, Postdrug 30 min: 30 min postdrug; for Area under the contraction curve, Postdrug 40 min: 40 min postdrug; for Area under the contraction curve, Postdrug 50 min: 50 min postdrug; for Area under the contraction curve, Postdrug 60 min: 60 min postdrug; for Inhibition Maximal / Inhibition Mean / ED50: phase I+II activity; for Area under the contraction curve, Predrug -20 - 0: predrug baseline -20 - 0 min; for Duration of action: when postdrug values reached 90 % or more of predrug values; for ED50: Canis lupus familiaris, iv, conscious dog, read-out: intravenous IC₅₀-values determined from maximal inhibition
Description: Male dogs (THG Tierhandelsgesellschaft Rodenbach, Hoe:BEAK (Beagle)) weighing 15 - 20 kg were used in all experiments. At least 4 weeks prior to the experiment the dogs had been equipped with miniaturized strain gage force transducers (T1-T3) (2x4 mm), sutured onto the gut at the locations mentioned below. The cables of the transducers were embedded into a cannula which carried the plug for external electric connection. This stainless steel cannula was implanted into the abdominal wall, close below the costal arch. Each transducer was connected to a measuring bridge. The signals were on line stored using a HP 9835 A computer, allowing later analysis of the data. • T1 : Proximal jejunum • T2 : Distal jejunum • T3 : Ileum
(§1) 18 hours prior to the experiment food was withdrawn from the animals, water ad libidum. All experiments started between 08:00 and 09:00 am.
The following motility parameters were determined: The integral under the […] at 10 min intervals (mNx10min) as an index of phase I + II activity. The duration of drug action (min.) The duration of the interdigestive migrating complex (IMC) (min) as a measure of phase III activity.
Test Compound II was given at doses of 0.2 and 0.5 mg/kg i.v. or 5 mg/kg i.g., dissolved in saline, in a volume of 1 ml/kg (i.v.) or 2 ml/kg (i.g.), n = 3 - 6. Control n = 26.
Buscopan was given at doses of 0.3 and 1 mg/kg i.v., dissolved in saline, in a volume of 1 ml/kg, n = 4 - 6. Pitofenone was given at doses of 1 mg/kg i.v., dissolved in saline, in a volume of 1 ml/kg, n = 8.
ID₅₀-values were determined graphically.

large Bowel = assay: Motility of the large bowel (colonic motor complex) in conscious dogs
Description: Male dogs (THG Tierhandelsgesellschaft Rodenbach, Hoe:BEAK (Beagle)) weighing 15 - 20 kg were used in all experiments.
At least 4 weeks prior the experiment the dogs had been equipped with miniaturised strain gage force transducers (T1-T2) (2x4mm), sutured onto the gut at the locations mentioned below. The cables of the transducers were embedded into a cannula which carried the plug for external electric connection. This stainless steel cannula was implanted into the abdominal wall, close below the costal arch. Each transducer was connected to a measuring bridge. The signals were on line stored using a HP 9835 A computer, allowing later analysis of the data. • T1 : Colon ascendens 10 cm aborafrom the ileoceval valve (ICV) • T2 : Colon transversum 25 cm aborad from the ICV
as §1
The following parameters were determined: The duration of the cycle (min) The duration of the colonic motor complex (CMC) (min) The maximal height of the concentrations (AU: arbitrary units)
Data from the two recording sites (T1-T2) were pooled. […]
For detection of significant differences (p < 0.05) the unpaired t-test was used. Only significant differences were indicated by *.

`COC(=O)c1ccccc1C(=O)c1ccc(OCCN2CCCCC2)cc1.Cl` [Test Compound I, Methyl-2-[4-(2-piperidino-ethoxy)-benzoyl]-benzoate hydrochloride] was tested, and the Duration (small intestine [1]; 20 mg/kg intra-duodenal) was 40 min, the On-set (small intestine [1]; 20 mg/kg intra-duodenal) was 20 min and the Percent Inhibition (small intestine [1]; 20 mg/kg intra-duodenal) was 63%. The ED50 (small intestine [1]; Canis lupus familiaris, iv, read-out: ID₅₀) was 0.14 mg/kg, the Duration of action (small intestine [1]; intravenous administration) was 10 to 30 min and the “Percent Inhibition” value (small intestine [2]; 60 mg/kg p.o.) was 24.0 ± 3.0%. The “Percent Inhibition” value (small intestine [2]; 100 mg/kg p.o.) was 30.0 ± 4.3%, the “Area under the contraction curve, Postdrug 10 min” value (from here on “Area … Postdrug 10 min”) (small intestine [3]; 1 mg/kg i.v.) was 1.58 mN x 10 min and the “Area under the contraction curve, Postdrug 20 min” value (“Area … Postdrug 20 min” for short) (small intestine [3]; 1 mg/kg i.v.) was 2.01 mN x 10 min. The “Area under the contraction curve, Postdrug 30 min” value (“Area … Postdrug 30 min” for short) (small intestine [3]; 1 mg/kg i.v.) was 2.59 mN x 10 min, the “Area under the contraction curve, Postdrug 40 min” value (“Area … Postdrug 40 min” for short) (small intestine [3]; 1 mg/kg i.v.) was 2.29 mN x 10 min and the “Area under the contraction curve, Postdrug 50 min” value (“Area … Postdrug 50 min” for short) (small intestine [3]; 1 mg/kg i.v.) was 3.16 mN x 10 min. For the same compound, the “Area under the contraction curve, Postdrug 60 min” value (“Area … Postdrug 60 min” for short) (small intestine [3]; 1 mg/kg i.v.) was 3.64 mN x 10 min, the “Inhibition Maximal” value (small intestine [3]; 1 mg/kg i.v.) was 47% and the “Inhibition Mean” value (small intestine [3]; 1 mg/kg i.v.) was 29 ± 7%. The “Area under the contraction curve, Predrug -20 - 0” value (“Area … - 0” for short) (small intestine [3]; 1 mg/kg i.v.) was 2.96 mN x 10 min, the Duration of action (small intestine [3]; 1 mg/kg i.v.) was 40 min and the ED50 (small intestine [3]) was 1 mg/kg.

In the case of `CCCC[N+]1(C)[C@@H]2C[C@@H](OC(=O)[C@H](CO)c3ccccc3)C[C@H]1[C@@H]1O[C@@H]12` (stereo partly shown) [Buscopan], the “Area … Postdrug 10 min” value (small intestine [3]; 0.3 mg/kg i.v.) is reported as 1.78 mN x 10 min, the “Area … Postdrug 20 min” value (small intestine [3]; 0.3 mg/kg i.v.) is reported as 1.74 mN x 10 min and the “Area … Postdrug 30 min” value (small intestine [3]; 0.3 mg/kg i.v.) is reported as 2.17 mN x 10 min. The “Area … Postdrug 40 min” value (small intestine [3]; 0.3 mg/kg i.v.) was 2.15 mN x 10 min, the “Area … Postdrug 50 min” value (small intestine [3]; 0.3 mg/kg i.v.) was 1.80 mN x 10 min and the “Area … Postdrug 60 min” value (small intestine [3]; 0.3 mg/kg i.v.) was 1.60 mN x 10 min. For the same compound, the “Inhibition Maximal” value (small intestine [3]; 0.3 mg/kg i.v.) was 29%, the “Inhibition Mean” value (small intestine [3]; 0.3 mg/kg i.v.) was 23 ± 6% and the “Area … - 0” value (small intestine [3]; 0.3 mg/kg i.v.) was 2.09 mN x 10 min. The Duration of action (small intestine [3]; 0.3 mg/kg i.v.) was 20 min, the “Area … Postdrug 10 min” value (small intestine [3]; 1 mg/kg i.v.) was 0.85 mN x 10 min and the “Area … Postdrug 20 min” value (small intestine [3]; 1 mg/kg i.v.) was 0.86 mN x 10 min. The “Area … Postdrug 30 min” value (small intestine [3]; 1 mg/kg i.v.) was 1.23 mN x 10 min, the “Area … Postdrug 40 min” value (small intestine [3]; 1 mg/kg i.v.) was 2.03 mN x 10 min and the “Area … Postdrug 50 min” value (small intestine [3]; 1 mg/kg i.v.) was 2.09 mN x 10 min. The “Area … Postdrug 60 min” value (small intestine [3]; 1 mg/kg i.v.) was 1.99 mN x 10 min, the “Inhibition Maximal” value (small intestine [3]; 1 mg/kg i.v.) was 58% and the “Inhibition Mean” value (small intestine [3]; 1 mg/kg i.v.) was 52 ± 6%. For the same compound, the “Area … - 0” value (small intestine [3]; 1 mg/kg i.v.) was 2.03 mN x 10 min, the Duration of action (small intestine [3]; 1 mg/kg i.v.) was 30 min and the ED50 (small intestine [3]) was 0.6 mg/kg. For the same compound, the “Duration CMC” value (large Bowel; 3 mg/kg intragastrically) was 6 ± 4 min, the “Duration Cycle” value (large Bowel; 3 mg/kg intragastrically) was 35 ± 19 min and the “Max.heigth of CMC” value (large Bowel; 3 mg/kg intragastrically) was 35±17 AU. The “Duration CMC” value (large Bowel; 10 mg/kg intragastrically) was 5 ± 1 min, the “Duration Cycle” value (large Bowel; 10 mg/kg intragastrically) was 32 ± 5 min and the “Max.heigth of CMC” value (large Bowel; 10 mg/kg intragastrically) was 35±10 AU. For the same compound, the “effect on colonic motility” value (large Bowel; 3 and 10 mg/kg i.g.) was “no effect”.
